Measured values reported in PubChem BioAssay (NCI).
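Interpolation was linear, between the two tested concentrations surrounding the appropriate level; five concentrations were tested over 48 hours in 96-well plates. Here, GI50 denotes the concentration required for 50% inhibition of growth. TGI denotes the concentration required for complete inhibition of growth.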

Columns and labels:
Test in all cases: DTP human tumour cell line panel, 48 h
[1] = tested on: HCT-15 colon
[2] = tested on: HOP-92 NSCLC
[3] = tested on: KM12 colon
[4] = tested on: LOX IMVI melanoma
[5] = tested on: NCI-H23 lung
[6] = tested on: NCI-H460 lung
[7] = tested on: SF-268 CNS
[8] = tested on: SK-MEL-2 melanoma
[9] = tested on: SNB-19 CNS
[10] = tested on: COLO 205 colon

Row | Compound | TGI [1] [µM] | TGI [2] [µM] | TGI [3] [µM] | TGI [4] [µM] | TGI [5] [µM] | TGI [6] [µM] | TGI [7] [µM] | TGI [8] [µM] | TGI [9] [µM] | GI50 [10] [µM] | TGI [10] [µM] | GI50 [1] [µM] | GI50 [2] [µM] | GI50 [3] [µM] | GI50 [4] [µM] | GI50 [5] [µM] | GI50 [7] [µM] | GI50 [8] [µM] | GI50 [9] [µM]
1 | CC(CO)(CO)Nc1ncnc2ccccc12 | > 100 | > 100 | > 100 | > 100 | > 100 | > 100 | > 100 | > 100 | > 100 | – | – | – | – | – | – | – | – | – | –
2 | Fc1ccc(-c2nnc3sc(COc4ccccc4Cl)nn23)cc1Cl | 48.7 | > 100 | > 100 | 31.6 | > 100 | – | > 100 | > 100 | > 100 | 43.7 | > 100 | 17.7 | 30.4 | 77.1 | 16.5 | 33.4 | 41.9 | 51.8 | 39.9
3 | Nc1nnc(N)n1NC(=O)C(=O)Nc1ccc([N+](=O)[O-])cc1 | > 100 | > 100 | > 100 | > 100 | > 100 | > 100 | > 100 | > 100 | > 100 | – | > 100 | – | – | – | – | – | – | – | –
4 | Cn1c(Sc2ccc(-c3cccnc3)n2C)ccc1-c1cccnc1 | 35.6 | 28.1 | 33.6 | 15.8 | 34.8 | 31.1 | 23.7 | 30.1 | 42.3 | – | 38 | – | – | – | – | – | – | – | –
5 | COc1cc2c(cc1Oc1ccc(OC)c3c1CC1c4c(cc(OC)c(OC)c4-3)CCN1C)CC1c3c(cc(OC)c(OC)c3-2)CCN1C (stereo not given) | 6.93 | 12.4 | 9.33 | 2.48 | 27.4 | 3.88 | 14.8 | 3.79 | 14.5 | – | 2.95 | – | – | – | – | – | – | – | –
6 | COc1ccc(CC2c3cc(OC)c(OC)c(OC)c3CC[N+]2(C)C)cc1Oc1ccc(CC2c3cc4c(c(OC)c3CCN2C)OCO4)cc1 (stereo not given) | > 100 | > 100 | > 100 | > 100 | > 100 | > 100 | > 100 | > 100 | > 100 | – | > 100 | – | – | – | – | – | – | – | –
7 | C[n+]1ccc(-c2cc[n+](C)cc2)cc1 | > 52.3 | > 63.6 | > 92.4 | > 48.1 | > 29.3 | > 33.5 | > 100 | 13.1 | > 100 | – | > 38.3 | – | – | – | – | – | – | – | –
8 | COc1cc(C)c2c(=O)c3c(oc2c1)C(=O)c1c(O)c(OC)cc(O)c1C3=O | 3.79 | 1.26 | 11.9 | 1.24 | 3.38 | 3.97 | > 50 | 1.88 | 7.89 | – | > 43.4 | – | – | – | – | – | – | – | –
9 | O=C(O)C1=NNC(C(=O)O)=NN1 | > 100 | > 100 | > 100 | > 100 | > 100 | > 100 | > 100 | > 100 | > 100 | – | > 100 | – | – | – | – | – | – | – | –
10 | COc1cc(O)c2c(c1)C(=O)c1cc(C)cc(O)c1C2=O | – | – | > 100 | > 100 | > 100 | > 100 | > 100 | > 100 | > 100 | – | > 100 | – | – | – | – | – | – | – | –
11 | CC(C)=CCC[C@](C)(O[C@@H]1O[C@H](CO)[C@@H](O)[C@H](O)[C@H]1O)[C@H]1CC[C@]2(C)[C@@H]1[C@H](O)C[C@@H]1[C@@]3(C)CC[C@H](O)C(C)(C)[C@@H]3[C@@H](O[C@@H]3O[C@H](CO)[C@@H](O)[C@H](O)[C@H]3O)C[C@]12C | > 100 | > 100 | > 100 | > 100 | > 100 | > 100 | > 100 | > 100 | > 100 | – | > 100 | – | – | – | – | – | – | – | –
12 | NC(=O)Nc1cc(O)ccc1N=Nc1ccc(S(=O)(=O)Nc2ccccn2)cc1 | > 100 | > 100 | > 100 | > 100 | > 100 | > 100 | > 100 | > 100 | > 100 | – | > 100 | – | – | – | – | – | – | – | –
13 | CCCCCCCCCCCCCCCCOCC(COP(=O)([O-])OCC[n+]1ccc(N(C)C)cc1)OCC (stereo not given) | 32.5 | 32.6 | 3.86 | 25.5 | 35.9 | 25.4 | 25.7 | 27 | 14.4 | – | 26.5 | – | – | – | – | – | – | – | –
